Bridge positions count the residues as written; N and C are the ends. Square brackets hold non-standard residues; d marks the D form. Peptide text beside a SMILES is read from it. * marks the point of attachment. ξ: configuration not given here. Phe(4-(4-F-Ph)) = N[C@@H](Cc1ccc(-c2ccc(F)cc2)cc1)C(=O)O; Phe(4-COOH) = N[C@@H](Cc1ccc(C(=O)O)cc1)C(=O)O; Bip = N[C@@H](Cc1ccc(-c2ccccc2)cc1)C(=O)O; Phe(3-Me) = Cc1cccc(C[C@H](N)C(=O)O)c1; Phe(2-Me) = Cc1ccccc1C[C@H](N)C(=O)O; Val(3-OH) = CC(C)(O)[C@H](N)C(=O)O; Cha = N[C@@H](CC1CCCCC1)C(=O)O; Cit = NC(=O)NCCC[C@H](N)C(=O)O; Ile(3ξ) = CCC(C)[C@H](N)C(=O)O; Thr(3ξ) = CC(O)[C@H](N)C(=O)O; Carboxymethyl = O=C(O)C*; NMeA = CN[C@@H](C)C(=O)O; Nle = CCCC[C@H](N)C(=O)O; Orn = NCCC[C@H](N)C(=O)O; Pra = C#CC[C@H](N)C(=O)O; Dab = NCC[C@H](N)C(=O)O; Dap = NC[C@H](N)C(=O)O; ξC = NC(CS)C(=O)O; Acm = CC(=O)NC*

In this assay the target is T1, PE-labeled human PD-L1-Ig binding to Jurkat cell line over-expressing human PD-1 (Jurkat-PD-1) (Homo sapiens, UniProt Q15116).
T1 construct: expressed in transfected cells; host or cells: Jurkat
T1 sequence (Q15116 25-288): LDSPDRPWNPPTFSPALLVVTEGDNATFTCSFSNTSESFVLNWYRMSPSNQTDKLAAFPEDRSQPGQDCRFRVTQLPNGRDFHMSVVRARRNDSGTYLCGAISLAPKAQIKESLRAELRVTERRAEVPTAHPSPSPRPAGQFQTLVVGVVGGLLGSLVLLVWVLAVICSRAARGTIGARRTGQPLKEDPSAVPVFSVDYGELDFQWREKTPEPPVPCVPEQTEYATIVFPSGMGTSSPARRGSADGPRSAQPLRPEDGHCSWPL
As to the kind of experiment: Jurkat-PD-1 Cell Binding High-Content Screening Assay (CBA): Method 1. The following applies: Jurkat-hPD-1 cells, PE-labeled PD-L1-Ig 20 nM final; read-out: Jurkat HPDL1 PD1 IC50 (uM) (Method 1).
By IC50 is commonly meant the concentration at which inhibition is half-maximal. On to `CC(C)C[C@@H]1NC(=O)[C@H](Cc2c[nH]c3ccccc23)NC(=O)[C@H](CC(=O)O)NC(=O)[C@H](Cc2ccc(O)cc2)NC(=O)[C@H](Cc2ccccc2)NC(=O)CSC[C@@H](C(=O)N[C@@H](C)C(N)=O)NC(=O)[C@H](CO)NC(=O)[C@H](C(C)C)NC(=O)[C@H](CC(C)C)NC(=O)[C@H](CC(N)=O)NC(=O)[C@@H](CCCCN)NC(=O)[C@H](C)N(C)C(=O)[C@H](C(C)C)NC(=O)[C@H](Cc2ccc(-c3ccccc3)cc2)NC1=O` [Compound 1793] ({CH2CO}-FYDWL[Bip]V[NMeA][dK]NLVSCA-NH2; thioether N-14), for which the IC50 amounted to 0.15 µM.
With `CC(C)C[C@@H]1NC(=O)[C@H](Cc2c[nH]c3ccccc23)NC(=O)[C@H](CC(=O)O)NC(=O)[C@H](Cc2ccc(O)cc2)NC(=O)[C@H](Cc2ccccc2)NC(=O)CSC[C@@H](C(=O)N[C@@H](C)C(N)=O)NC(=O)[C@H](CO)NC(=O)[C@H](CCN)NC(=O)[C@H](CC(C)C)NC(=O)[C@H](CC(N)=O)NC(=O)[C@@H](CC(C)C)NC(=O)[C@H](C)N(C)C(=O)[C@H](C(C)C)NC(=O)[C@H](Cc2ccc(-c3ccccc3)cc2)NC1=O` [Compound 1538] ({CH2CO}-FYDWL[Bip]V[NMeA][dL]NL[Dab]SCA-NH2; thioether N-14), the IC50 worked out at 0.1 µM.
For `Cc1ccccc1C[C@@H]1NC(=O)[C@H](Cc2ccccc2)NC(=O)CSC[C@@H](C(=O)N[C@@H](C)C(N)=O)NC(=O)[C@H](CO)NC(=O)[C@H](C(C)C)NC(=O)[C@H](CC(C)C)NC(=O)[C@H](CC(N)=O)NC(=O)[C@@H](C)NC(=O)[C@H](C)N(C)C(=O)[C@H](C(C)C)NC(=O)[C@H](Cc2ccc(-c3ccccc3)cc2)NC(=O)[C@H](CC(C)C)NC(=O)[C@H](Cc2c[nH]c3ccccc23)NC(=O)[C@H](CC(=O)O)NC1=O` [Compound 1794] ({CH2CO}-F[Phe(2-Me)]DWL[Bip]V[NMeA][dA]NLVSCA-NH2; thioether N-14) the value was 0.15 µM.
For `Cc1cccc(C[C@@H]2NC(=O)[C@H](CC(=O)O)NC(=O)[C@H](Cc3ccc(O)cc3)NC(=O)[C@H](CC(N)=O)NC(=O)CSC[C@@H](C(=O)N[C@@H](CCN)C(N)=O)NC(=O)[C@H](CCC(=O)O)NC(=O)[C@H](C(C)(C)O)NC(=O)[C@H](CC3CCCCC3)NC(=O)[C@H](CCN)NC(=O)[C@@H](CC(C)C)NC(=O)[C@H](C)N(C)C(=O)[C@H](CCCNC(N)=O)NC(=O)[C@H](Cc3ccc(-c4ccccc4)cc3)NC(=O)[C@H](C(C)(C)O)NC2=O)c1` [Compound 1711] ({CH2CO}-NYD[Phe(3-Me)][Val(3-OH)][Bip][Cit][NMeA][dL][Dab][Cha][Val(3-OH)]EC[Dab]-NH2; thioether N-14) the value was 0.06 µM; for `C#CC[C@H](NC(=O)[C@H](CCN)NC(=O)[C@@H]1CSCC(=O)N[C@@H]([C@@H](C)O)C(=O)N[C@@H](Cc2ccc(OCC(=O)O)cc2)C(=O)N[C@@H](CC(=O)O)C(=O)N[C@@H](Cc2cccc(C)c2)C(=O)N[C@@H](Cc2ccc(OCC(=O)O)cc2)C(=O)N[C@@H](Cc2ccc(-c3ccccc3)cc2)C(=O)N[C@@H](Cc2ccc(OCC(=O)O)cc2)C(=O)N(C)[C@@H](C)C(=O)N[C@H](CC(C)C)C(=O)N[C@@H](CCN)C(=O)N[C@@H](CC2CCCCC2)C(=O)N[C@@H](C(C)(C)O)C(=O)N[C@@H](CCC(=O)O)C(=O)N1)C(=O)O` [Compound 1937] ({CH2CO}-TY(Carboxymethyl)D[Phe(3-Me)]Y(Carboxymethyl)[Bip]Y(Carboxymethyl)[NMeA][dL][Dab][Cha][Val(3-OH)]EC[Dab][Pra]-OH; thioether N-14), 0.07 µM.
In the case of `CC(=O)NCSC[C@H](NC(=O)C1CSCC(=O)N[C@@H](Cc2ccc(OCC(=O)O)cc2)C(=O)N[C@@H](CSCNC(C)=O)C(=O)N[C@@H](CC(=O)O)C(=O)N[C@@H](Cc2cccc(C)c2)C(=O)N[C@@H](CC(C)C)C(=O)N[C@@H](Cc2ccc(-c3ccccc3)cc2)C(=O)N[C@@H](C(C)C)C(=O)N(C)[C@@H](C)C(=O)N[C@H](CC(C)C)C(=O)N[C@@H](CC(N)=O)C(=O)N[C@@H](CC(C)C)C(=O)N[C@@H](C(C)C)C(=O)N[C@@H](CO)C(=O)N1)C(N)=O` (stereo partly drawn) [Compound 1889] ({CH2CO}-Y(Carboxymethyl)C(Acm)D[Phe(3-Me)]L[Bip]V[NMeA][dL]NLVS[ξC]C(Acm)-NH2; thioether N-14), the IC50 was determined as 0.03 µM.
Next, `CCC(C)[C@@H]1NC(=O)[C@H](Cc2ccc(-c3ccccc3)cc2)NC(=O)[C@H](CC(C)C)NC(=O)[C@H](Cc2c[nH]c3ccccc23)NC(=O)[C@H](CC(=O)O)NC(=O)[C@H](Cc2ccc(OCC(=O)O)cc2)NC(=O)[C@H](C(C)O)NC(=O)CSC[C@@H](C(=O)N[C@@H](CC(N)=O)C(=O)O)NC(=O)[C@H](CN)NC(=O)[C@H](C(C)C)NC(=O)[C@H](CC(C)C)NC(=O)[C@H](CCN)NC(=O)[C@@H](CC(C)C)NC(=O)[C@H](C)N(C)C1=O` (stereo partly drawn) [Compound 2228] ({CH2CO}-[Thr(3ξ)]Y(Carboxymethyl)DWL[Bip][Ile(3ξ)][NMeA][dL][Dab]LV[Dap]CN-OH; thioether N-14): 0.12 µM; `CC(C)C[C@@H]1NC(=O)[C@H](Cc2c[nH]c3ccccc23)NC(=O)[C@H](CC(=O)O)NC(=O)[C@H](Cc2ccc(O)cc2)NC(=O)[C@H](Cc2ccccc2)NC(=O)CSC[C@@H](C(=O)NCC(N)=O)NC(=O)[C@H](CO)NC(=O)[C@H](C(C)C)NC(=O)[C@H](CC(C)C)NC(=O)[C@H](CC(=O)O)NC(=O)[C@H](CCCCN)NC(=O)[C@H](C)N(C)C(=O)[C@H](C(C)C)NC(=O)[C@H](Cc2ccc(-c3ccccc3)cc2)NC1=O` [Compound 1826] ({CH2CO}-FYDWL[Bip]V[NMeA]KDLVSCG-NH2; thioether N-14): 0.76 µM; `CC(C)C[C@@H]1NC(=O)[C@H](CCN)NC(=O)[C@@H](CC(C)C)NC(=O)[C@H](C)N(C)C(=O)[C@H](CCCNC(=N)N)NC(=O)[C@H](Cc2ccc(-c3ccccc3)cc2)NC(=O)[C@H](C(C)C)NC(=O)[C@H](Cc2c[nH]c3ccccc23)NC(=O)[C@H](CC(=O)O)NC(=O)[C@H](Cc2ccc(OCC(=O)O)cc2)NC(=O)[C@H](CC(N)=O)NC(=O)CSC[C@@H](C(=O)N[C@@H](C)C(N)=O)NC(=O)[C@H]([C@@H](C)O)NC(=O)[C@H](C(C)C)NC1=O` [Compound 1138] ({CH2CO}-NY(Carboxymethyl)DWV[Bip]R[NMeA][dL][Dab]LVTCA-NH2; thioether N-14): 0.07 µM.
In the case of `CCCC[C@@H]1NC(=O)[C@H](CCCNC(=N)N)NC(=O)[C@@H](CC(C)C)NC(=O)[C@H](C)N(C)C(=O)[C@H]([C@@H](C)CC)NC(=O)[C@H](Cc2ccc(-c3ccccc3)cc2)NC(=O)[C@H](C(C)C)NC(=O)[C@H](Cc2c[nH]c3ccccc23)NC(=O)[C@H](CC(=O)O)NC(=O)[C@H](Cc2ccc(O)cc2)NC(=O)[C@H](CN)NC(=O)CSC[C@@H](C(=O)N[C@@H](C)C(N)=O)NC(=O)[C@H]([C@@H](C)O)NC(=O)[C@H](C(C)C)NC1=O` [Compound 1496] ({CH2CO}-[Dap]YDWV[Bip]I[NMeA][dL]R[Nle]VTCA-NH2; thioether N-14), the IC50 is 0.18 µM.
Next, `CC(C)C[C@@H]1NC(=O)[C@H](CCCN)NC(=O)[C@@H](CC(C)C)NC(=O)[C@H](C)N(C)C(=O)[C@H](CCCNC(=N)N)NC(=O)[C@H](Cc2ccc(-c3ccccc3)cc2)NC(=O)[C@H](C(C)C)NC(=O)[C@H](Cc2c[nH]c3ccccc23)NC(=O)[C@H](CC(=O)O)NC(=O)[C@H](Cc2ccc(C(=O)O)cc2)NC(=O)[C@H](Cc2ccccc2)NC(=O)CSC[C@@H](C(=O)N[C@@H](C)C(N)=O)NC(=O)[C@H]([C@@H](C)O)NC(=O)[C@H](C(C)C)NC1=O` [Compound 1156] ({CH2CO}-F[Phe(4-COOH)]DWV[Bip]R[NMeA][dL][Orn]LVTCA-NH2; thioether N-14): 0.03 µM.
For `CC(C)C[C@@H]1NC(=O)[C@H](CCCN)NC(=O)[C@@H](CC(C)C)NC(=O)[C@H](C)N(C)C(=O)[C@H](CCCN)NC(=O)[C@H](Cc2ccc(-c3ccccc3)cc2)NC(=O)[C@H](C(C)C)NC(=O)[C@H](Cc2c[nH]c3ccccc23)NC(=O)[C@H](CC(=O)O)NC(=O)[C@H](Cc2ccc(O)cc2)NC(=O)[C@H](CC(N)=O)NC(=O)CSC[C@@H](C(=O)N[C@@H](C)C(N)=O)NC(=O)[C@H]([C@@H](C)O)NC(=O)[C@H](C(C)C)NC1=O` [Compound 1241] ({CH2CO}-NYDWV[Bip][Orn][NMeA][dL][Orn]LVTCA-NH2; thioether N-14) the value was 0.02 µM; for `CC(C)C[C@@H]1NC(=O)[C@H](CCN)NC(=O)[C@@H](CC(C)C)NC(=O)[C@H](C)N(C)C(=O)[C@H](CCCNC(N)=O)NC(=O)[C@H](Cc2ccc(-c3ccccc3)cc2)NC(=O)[C@H](C(C)C)NC(=O)[C@H](Cc2c[nH]c3ccccc23)NC(=O)[C@H](CC(=O)O)NC(=O)[C@H](Cc2ccc(O)cc2)NC(=O)[C@H](CC(N)=O)NC(=O)CSC[C@@H](C(=O)N[C@@H](C)C(N)=O)NC(=O)[C@H](CO)NC(=O)[C@H](C(C)C)NC1=O` [Compound 1237] ({CH2CO}-NYDWV[Bip][Cit][NMeA][dL][Dab]LVSCA-NH2; thioether N-14), 0.03 µM.
Next, `CC(C)C[C@H]1NC(=O)[C@H](C)N(C)C(=O)[C@H](CCC(=O)O)NC(=O)[C@H](Cc2ccc(-c3ccccc3)cc2)NC(=O)[C@H](C(C)C)NC(=O)[C@H](Cc2c[nH]c3ccccc23)NC(=O)[C@H](CC(=O)O)NC(=O)[C@H](Cc2ccc(O)cc2)NC(=O)[C@H](C(C)O)NC(=O)CSC[C@@H](C(=O)NCC(N)=O)NC(=O)[C@H](C(C)O)NC(=O)[C@H](C(C)C)NC(=O)[C@H](CC2CCCCC2)NC(=O)[C@H](CCN)NC1=O` (stereo partly drawn) [Compound 2095] ({CH2CO}-[Thr(3ξ)]YDWV[Bip]E[NMeA][dL][Dab][Cha]V[Thr(3ξ)]CG-NH2; thioether N-14): 0.04 µM.
Take `CC(C)C[C@@H]1NC(=O)[C@H](Cc2c[nH]c3ccccc23)NC(=O)[C@H](CC(=O)O)NC(=O)[C@H](Cc2ccc(O)cc2)NC(=O)[C@H](Cc2ccccc2)NC(=O)CSC[C@@H](C(=O)N[C@@H](C)C(N)=O)NC(=O)[C@H](CO)NC(=O)[C@H](C(C)C)NC(=O)[C@H](CC(C)C)NC(=O)[C@H](CC(=O)O)NC(=O)[C@@H](C)NC(=O)[C@H](C)N(C)C(=O)[C@H](C(C)C)NC(=O)[C@H](Cc2ccc(-c3ccc(F)cc3)cc2)NC1=O` [Compound 1825] ({CH2CO}-FYDWL[Phe(4-(4-F-Ph))]V[NMeA][dA]DLVSCA-NH2; thioether N-14): the IC50 came out at 0.66 µM.

These data come from patent US20240409585A1, “MACROCYCLIC IMMUNOMODULATORS” (priority 2021, published 2024).
